Key:
[1] = target: T1, KEAP1 C151 (Homo sapiens, UniProt Q14145); assay: Nrf2 TMT measurement: in vitro TE50 for KEAP1 C151 (IA-DTB competition, targeted TMT mass spectrometry) in MDA-MB-468 cell lysate; assay type: binding; conditions: in vitro target engagement of KEAP1 C151, targeted TMT, read-out: KEAP1_C151 TE50
T1 construct: treating 500 μg of cell lysate generated from MDA-MB-468 breast cancer cells with DMSO or compound; endogenous in cells; host or cells: MDA-MB-468 breast cancer cell lysate
T1 sequence (Q14145 whole entry): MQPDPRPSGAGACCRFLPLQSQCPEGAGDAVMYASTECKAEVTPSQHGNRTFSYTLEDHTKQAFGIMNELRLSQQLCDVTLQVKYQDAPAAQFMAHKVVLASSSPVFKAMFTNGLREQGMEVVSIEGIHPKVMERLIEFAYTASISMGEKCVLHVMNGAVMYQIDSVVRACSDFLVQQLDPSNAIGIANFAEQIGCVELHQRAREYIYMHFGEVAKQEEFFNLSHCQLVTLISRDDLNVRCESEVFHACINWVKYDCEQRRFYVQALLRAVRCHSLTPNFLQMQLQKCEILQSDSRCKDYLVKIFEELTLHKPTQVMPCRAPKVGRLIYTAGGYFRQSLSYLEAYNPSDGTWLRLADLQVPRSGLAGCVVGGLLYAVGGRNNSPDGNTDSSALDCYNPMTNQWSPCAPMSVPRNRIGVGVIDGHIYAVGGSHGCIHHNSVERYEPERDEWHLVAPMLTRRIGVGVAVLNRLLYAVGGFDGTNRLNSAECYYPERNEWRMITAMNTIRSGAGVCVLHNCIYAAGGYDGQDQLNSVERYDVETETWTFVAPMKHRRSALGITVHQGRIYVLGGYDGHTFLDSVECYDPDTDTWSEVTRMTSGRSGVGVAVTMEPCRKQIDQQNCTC
Protocol: In vitro TE50 values for KEAP_C151 were obtained by treating 500 μg of cell lysate generated from MDA-MB-468 breast cancer cells with DMSO or compound for 1 hour at room temperature followed by the addition of 200 μM IA-DTB (in DMSO) for one hour at room temperature. Samples were then precipitated by the addition of 8× ice cold acetonitrile and incubated at −80° C. for two hours. Protein was then pelleted by centrifugation (4,200 RPM, 45 min, 4° C.). The pelleted material was resuspended in 9M Urea, 50 mM ammonium bicarbonate and proteins were reduced and alkylated by the addition of DTT and iodoacetamide (10 and 30 mM, respectively). Following reduction and alkylation, samples were exchanged into 2M urea (Zeba spin desalting plates, Thermo Fisher) and digested with Trypsin. IA-DTB labeled peptides were isolated with streptavidin agarose resin. Enriched peptides were eluted by the addition of 50% acetonitrile (ACN) 0.1% Formic Acid (FA) and dried in a SpeedVac vacuum concentrator.
Dried peptides were resuspended in 0.2 M EPPS pH 8.5 and treated with 6.5 μL of 11-plex tandem mass tag (TMT) (8.3 μg/μL in dry ACN) for 2 hours at room temperature. Reactions were quenched by the addition of 6.5 μL of 5% Hydroxylamine. Samples were then combined and desalted on a Biotage Evolute express ABN plate (600-0010-PX01).
Targeted TMT. Targeted TMT measurements were collected using an Orbitrap LumosTribrid Mass Spectrometer (Thermo Scientific) coupled to an UltiMate 3000 Series Rapid Separation LC system and autosampler (Thermo Scientific Dionex). Peptides were eluted onto a custom C18 capillary analytical column (75-μm inner diameter fused silica, packed with Acclaim PepMap C18 resin (Thermo Scientific)) using an Acclaim PepMap 100 (Thermo 164535) loading column, and separated at a flow rate of 1.0 μl min−1. Data were acquired using a specific MS3-based TMT method targeting the peptide containing KEAP1 C151 (C(+324.2)[…], +3 charge state) where MS2 peptide fragmentation is triggered upon detection of the peptide precursor ion. Subsequent MS3 analysis was then performed using pre-selected peptide fragment ions that were isolated for fragmentation using synchronous precursor selection. RAW files were converted to MZXML format and searched with the SEQUEST algorithm using the MassPike software package. TMT quantitation was performed with a filter requiring at least ten summed signal-to-noise for control channels. Quantified signals were used for dose response curve-fitting and IC50 calculation using R's drc package.

[2] = system: Nrf2; assay: Nrf2 antagonism assay: ARE luciferase reporter in KYSE-70 cells; assay type: cell-based; conditions: positive Imax corresponds to Nrf2 antagonism; for KYSE70 Cellular ARE Luciferase Imax (%): KYSE-70 cells; for Emax: Homo sapiens, KYSE-70, KYSE-70 cells, read-out: KYSE70 Cellular ARE Luciferase Imax (%)
Excerpt: NRF2 binds to a promoter region, antioxidant response element (ARE), to initiate expression of multiple genes. ARE luciferase reporter assays are used to test whether a ligand can activate or repress the expression of target genes using luciferase as a reporter gene.
KYSE-70 is an esophageal squamous cell carcinoma cell line with a Nrf2 mutation at amino acid position W24C. This mutation lowers the affinity between the E3 ligase that includes KEAP1 and Nrf2, resulting in a state in which the synthesis rate of new Nrf2 is faster than the E3's degradation rate of Nrf2, resulting in a “Nrf2 high” state. In KYSE-70 cells, genes are inserted directly after the ARE that trigger the expression of luciferase. Without a NRF2 antagonist in this modified KYSE70 cell line which has an inherently “NRF2 high state”, luciferase is expressed, and a signal is observed.
Nrf2 antagonists bind at C151 of KEAP1 and stabilize the E3 which results in an increased degradation rate of Nrf2. Increased degradation of Nrf2 results in less expression of luciferase, and therefore a less intense signal.
An IC50 is generated from the dose-response curve and an Imax. A positive Imax corresponds to Nrf2 antagonism. Imax >90% correlates with in vivo tumor grown inhibition. Compounds with Imax >50% were included in this description.

SMILES | IC50 [1] [nM] | KYSE70 Cellular ARE Luciferase Imax (%) [2] [%] | Emax [2] [%]
C=CC(=O)N1[C@H](c2cc(Cl)cc(-c3ccnc(N)n3)c2)COC[C@H]1C(F)F (single isomer, unassigned) [Compound 290] | 15 |  | 93
C=CC(=O)N1CCN(S(C)(=O)=O)C[C@H]1c1cc(Cl)cc(-c2nnn(C)n2)c1 (single isomer, unassigned) [Compound 21] |  |  | 54
C=CC(=O)N1CCOC[C@H]1c1cc(Cl)cc(-c2c[nH]c(=O)[nH]2)c1 (single isomer, unassigned) [Compound 184] |  |  | 72
C=CC(=O)N1CCOC[C@H]1c1cc(Cl)cc(-c2nc(N)nc(Cl)n2)c1 (single isomer, unassigned) [Compound 199] |  |  | 92
C=CC(=O)N1[C@H](C)COC[C@H]1c1cc(Cl)cc(-c2ccnc(N)n2)c1 (single isomer, unassigned) [Compound 110] |  |  | 93
[2H]c1nc(N)nc(-c2cc(Cl)cc([C@@H]3COCCN3C(=O)C=C)c2)n1 (single isomer, unassigned) [Compound 208] |  |  | 94
C=CC(=O)N1CCN(C(C)=O)C[C@H]1c1cc(Cl)cc(-c2nnn(C)n2)c1 (single isomer, unassigned) [Compound 22] |  |  | 64
C=CC(=O)N1CCOCC1(C)c1cc(Cl)cc(-c2ncnc(N)n2)c1 (single isomer, unassigned) [Compound 112, 1-(3-(3-(4-amino-1,3,5-triazin-2-yl)-5-chlorophenyl)-3-methylmorpholino)prop-2-en-1-one] |  |  | 95
C=CC(=O)N1CCOCC1c1cc(Cl)cc(-c2ccnc(C(N)=O)c2)c1 (single isomer, unassigned) [Compound 75, 4-(3-(4-acryloylmorpholin-3-y1)-5-chlorophenyl)picolinamide] |  |  | 92
C=CC(=O)N1CCOC[C@H]1c1cc(Cl)cc(-c2ncnc(NCCO)n2)c1 (single isomer, unassigned) [Compound 219] |  |  | 81

Further lines, with some results ahead:

IC50 [1] [nM] | SMILES | KYSE70 Cellular ARE Luciferase Imax (%) [2] [%] | Emax [2] [%]
95 | C=CC(=O)N1CCOC[C@H]1c1cc(Cl)cc(C2CNC(=S)N(C)C2)c1 (single isomer, unassigned) [Compound 227] | 90 | 
27 | C=CC(=O)N1CCOCC1c1cc(Cl)cc(-c2cc(F)cc(C(N)=O)c2)c1 (single isomer, unassigned) [Compound 72, 3′-(4-acryloylmorpholin-3-yl)-5′-chloro-5-fluoro-[1,1′-biphenyl]-3-carboxamide] |  | 80
190 | C=CC(=O)N1C[C@@H](C)OC[C@H]1c1cc(Cl)cc(-c2ccc(F)c(C(N)=O)c2)c1 (single isomer, unassigned) [Compound 179] |  | 92
10 | C=CC(=O)N1CCOC[C@H]1c1cc(Cl)cc(-c2ncc(NC(C)=O)cn2)c1 (single isomer, unassigned) [Compound 248] |  | 89
320 | C=CC(=O)N1CCOC[C@H]1c1cc(Cl)cc(C2CNC(=O)CO2)c1 (single isomer, unassigned) [Compound 231] | 55 | 
86 | C=CC(=O)N1CCOCC1c1cc(Cl)cc(-c2nccc(C(N)=O)n2)c1 (single isomer, unassigned) [Compound 77, 2-(3-(4-acryloylmorpholin-3-yl)-5-chlorophenyl)pyrimidine-4-carboxamide] |  | 82
110 | C=CC(=O)N1CCOCC1c1cc(Cl)cc(-c2cccn(C)c2=O)c1 (single isomer, unassigned) [Compound 36, 3-(3-(4-acryloylmorpholin-3-yl)-5-chlorophenyl)-1-methylpyridin-2(1H)-one] |  | 69
86 | C=CC(=O)N1CCOC[C@H]1c1cc(Cl)cc(-c2ncc(N)c(OC)n2)c1 (single isomer, unassigned) [Compound 254] |  | 92
